In US20240261274A1, “TREATMENT OF MYC-DRIVEN CANCERS WITH GSPT1 DEGRADERS” (MONTE ROSA THERAPEUTICS, INC., priority 2021, published 2024):
One block for each compound: values may come before it.

Columns and labels:
GSPT1 = GSPT1 (Homo sapiens, UniProt P15170+Q96SW2); test: GSPT1 levels in tumors, PD analysis by western blotting (compound 8); type: in vivo, mice; parameters: from tissue; host or cells: NCI-H1155 subcutaneous xenograft tumours from BALB/c nude mice; details: 75 mg/kg and 37 mg/kg, respectively; 24 hr post third dose
Description: For the PD analysis, tumors were harvested 24 hr post third dose and GSPT1 total levels in tumors were determined by western blotting analysis. GADPH levels were measured as control Briefly, 30-50 mg of tumor was placed in 350 μL of RIPA buffer containing 1% Protease Inhibitor Cocktail and 1% Phosphatase Inhibitor Cocktail 2. Tumors were grinded using the Tissuelyser LT at 50 Hz for 5 min. the tissue lysates were kept on ice for 30 min, centrifuged at 12,000 rpm at 4° C. for 10 min and protein concentration measured using the Pierce™ BCA Protein Assay Kit as recommended by the manufacturer. Samples were diluted to the same final concentration (at 4 μg/μL) using RIPA buffer plus 4×LDS Sample Buffer and 10× Sample Reducing Agent and subsequently heat denatured at 100° C. for 10 min. Western blot analysis was performed using 5 μL per slot for each sample, loaded on a NuPAGE® 4-12% Bis-Tris gel, probing for GSPT1 (Sigma-HPA052488; 1/250 dilution) and GAPDH as loading control (CST-5174; 1/2000 dilution).

[1] = system: human cell line NCI-H1770 xenograft; test: N-Myc-driven mouse xenograft model, NCI-H1770, compound 210 oral; type: in vivo
c-Myc = c-Myc levels in multiple myeloma and lymphoma cell lines after Compound 345 (western blot); type: cell-based; details: 24 hr post treatment
Source text: FIGS. 16A, 16B and 16C: Activity of Compound 345 in the c-Myc high multiple myeloma MM1S cell line. […] GAPDH was used as a loading control. […] Lenalidomide was used as a benchmark. 16C: Antiproliferative activity of Compound 345 (as indicated) following treatment with Compound 345 for 72 hr as assessed by Cell Titer Glo assay.
(§1) FIGS. 18A, 18B and 18C: Activity of Compound 345 in the c-Myc high WSU-DLCL2 lymphoma cell line. […] GAPDH was used as a loading control. 18B: Antiproliferative activity of Compound 345 (as indicated) following treatment with Compound 345 for 72 hr as assessed by Cell Titer Glo assay. […] Mice were dosed daily PO with vehicle or Compound 345 at 3, 10 mg/kg (as indicated). Tumor volumes were measured twice weekly. X-axis represents the number of days for treatment duration; y-axis represents mean tumor volume (in mm^3)±SEM. CHOP was used as a positive control for this model. Drug-free vehicle is represented by black circles; CHOP combination represented by light squares; Compound 345 3 mg/kg represented by triangles; Compound 345 10 mg/kg represented by dark squares.
as §1, with “19A, 19B,” for “18A, 18B”, “19C:” for “18C:”, “DOHH-2” for “WSU-DLCL2”, “19B:” for “18B:”, “model.” for “model. Drug-free vehicle is represented by black circles; CHOP combination represented by light squares; Compound 345 3 mg/kg represented by triangles; Compound 345 10 mg/kg represented by dark squares.”
Western blot analysis performed 24 hr post treatment initiation. GAPDH was used as a loading control. GSPT1 DC50 and Dmax as indicated.

Sequence of GSPT1 (P15170 whole entry): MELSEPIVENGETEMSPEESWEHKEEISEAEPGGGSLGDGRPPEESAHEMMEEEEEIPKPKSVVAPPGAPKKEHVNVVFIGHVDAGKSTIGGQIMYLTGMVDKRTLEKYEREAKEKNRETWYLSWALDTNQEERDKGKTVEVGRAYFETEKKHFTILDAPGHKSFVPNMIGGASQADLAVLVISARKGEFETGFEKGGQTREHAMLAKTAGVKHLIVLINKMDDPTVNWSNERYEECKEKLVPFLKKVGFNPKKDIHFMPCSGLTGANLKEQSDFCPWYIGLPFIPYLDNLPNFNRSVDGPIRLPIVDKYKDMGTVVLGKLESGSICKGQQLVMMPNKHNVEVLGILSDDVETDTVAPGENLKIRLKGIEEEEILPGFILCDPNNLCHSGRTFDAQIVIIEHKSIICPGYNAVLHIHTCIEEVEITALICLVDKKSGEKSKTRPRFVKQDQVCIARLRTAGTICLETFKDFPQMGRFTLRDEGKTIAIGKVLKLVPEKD
Sequence of GSPT1 (Q96SW2 whole entry): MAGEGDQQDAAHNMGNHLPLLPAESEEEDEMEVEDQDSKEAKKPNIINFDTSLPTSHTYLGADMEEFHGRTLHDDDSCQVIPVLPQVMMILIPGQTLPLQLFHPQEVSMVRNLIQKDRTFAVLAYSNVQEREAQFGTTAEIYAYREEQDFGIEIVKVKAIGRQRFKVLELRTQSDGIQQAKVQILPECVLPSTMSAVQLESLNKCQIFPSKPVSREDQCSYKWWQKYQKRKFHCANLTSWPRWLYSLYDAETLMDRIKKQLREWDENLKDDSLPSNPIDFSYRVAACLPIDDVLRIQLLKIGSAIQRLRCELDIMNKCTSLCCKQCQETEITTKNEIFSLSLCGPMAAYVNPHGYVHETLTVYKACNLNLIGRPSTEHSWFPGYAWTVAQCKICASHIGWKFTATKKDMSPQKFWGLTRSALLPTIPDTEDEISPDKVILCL
Sequence of GSPT1 (Q16531 whole entry partner): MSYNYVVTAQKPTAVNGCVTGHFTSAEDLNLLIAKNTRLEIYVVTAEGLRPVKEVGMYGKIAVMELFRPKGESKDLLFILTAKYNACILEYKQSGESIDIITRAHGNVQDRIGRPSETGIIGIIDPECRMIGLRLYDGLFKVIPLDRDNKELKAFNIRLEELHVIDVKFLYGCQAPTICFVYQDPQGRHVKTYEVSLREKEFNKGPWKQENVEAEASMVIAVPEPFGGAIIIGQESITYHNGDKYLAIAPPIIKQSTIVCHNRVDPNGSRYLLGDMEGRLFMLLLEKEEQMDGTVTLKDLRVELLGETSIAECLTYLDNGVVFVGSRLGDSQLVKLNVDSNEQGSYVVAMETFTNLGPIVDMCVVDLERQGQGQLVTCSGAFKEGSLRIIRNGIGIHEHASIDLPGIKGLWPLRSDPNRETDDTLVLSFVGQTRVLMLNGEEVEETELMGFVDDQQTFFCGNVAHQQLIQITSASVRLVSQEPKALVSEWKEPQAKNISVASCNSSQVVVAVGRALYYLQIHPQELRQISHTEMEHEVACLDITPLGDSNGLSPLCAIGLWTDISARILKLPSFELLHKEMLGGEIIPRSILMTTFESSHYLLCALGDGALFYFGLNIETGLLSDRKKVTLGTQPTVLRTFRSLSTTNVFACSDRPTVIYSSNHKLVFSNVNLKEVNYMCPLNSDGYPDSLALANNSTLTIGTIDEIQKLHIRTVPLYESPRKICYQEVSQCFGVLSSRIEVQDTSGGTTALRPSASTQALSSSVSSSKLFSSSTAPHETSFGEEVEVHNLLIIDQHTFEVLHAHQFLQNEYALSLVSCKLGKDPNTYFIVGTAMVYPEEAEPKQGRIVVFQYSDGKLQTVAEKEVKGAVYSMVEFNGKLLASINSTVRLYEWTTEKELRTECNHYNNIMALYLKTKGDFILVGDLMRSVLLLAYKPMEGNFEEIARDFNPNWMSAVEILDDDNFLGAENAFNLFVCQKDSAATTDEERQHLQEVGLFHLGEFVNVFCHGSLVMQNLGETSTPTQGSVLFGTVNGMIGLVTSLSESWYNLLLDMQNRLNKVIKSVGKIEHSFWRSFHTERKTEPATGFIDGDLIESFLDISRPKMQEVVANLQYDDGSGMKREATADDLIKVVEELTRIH

- GSPT1 levels in tumors (GSPT1): no or insignificant amounts of GSPT1
Compound: Cc1ccc(NC(=O)NCc2ccc3c(c2)C(=O)N(C2CCC(=O)NC2=O)C3)cc1Cl (centres unmarked) [Compound 8]

Compound: Cc1ccc(NC(=O)OCc2ccc3c(c2)C(=O)N(C2CCC(=O)NC2=O)C3)cc1Cl (centres unmarked) [Compound 210]
- tumor size ([1]; 3 mg/kg once daily): tumor size decreased and remained so until the end of the study
- tumor size ([1]; 6 mg/kg, five days on and nine days off): tumor size decreased and remained so until the end of the study
- body weight ([1]; oral administration): no body weight loss observed
- tumor growth ([1]; oral administration): tumor growth inhibition

Compound: O=C1CCC(N2Cc3ccc(COC(=O)Nc4cc(OC(F)(F)F)ccc4F)cc3C2=O)C(=O)N1 (centres unmarked) [Compound 345, (2-(2,6-dioxopiperidin-3-yl)-3-oxoisoindolin-5-yl)methyl(2-fluoro-5-(trifluoromethoxy)phenyl)carbamate]
- c-Myc level (c-Myc; DOHH-2 lymphoma cell line): downregulation of c-Myc
- c-Myc level (c-Myc; MM1S multiple myeloma cell line): downregulation of c-Myc
- c-Myc level (c-Myc; WSU-DLCL2 lymphoma cell line): downregulation of c-Myc
